From paper doi:10.1101/2023.03.24.534094v2 (biorxiv, 2023) come the findings set out here.

Some targets named below: CHK2 (Homo sapiens, UniProt O96017); CLK1 (Homo sapiens, UniProt P49759); CaMK1d (Homo sapiens, UniProt Q8IU85); EpHA2 (Homo sapiens, UniProt P29317); FGFR1 (Homo sapiens, UniProt P11362); FLT1 (Homo sapiens, UniProt P17948); MARK3 (Homo sapiens, UniProt P27448); MELK (Homo sapiens, UniProt Q14680); NEK7 (Homo sapiens, UniProt Q8TDX7); PIM3 (Homo sapiens, UniProt Q86V86); CK1e (Homo sapiens, UniProt P49674).

Holding throughout (assay): biochemical
The next test has as its target T1, AurA (Homo sapiens, UniProt O14965).
T1 sequence (O14965 1-403): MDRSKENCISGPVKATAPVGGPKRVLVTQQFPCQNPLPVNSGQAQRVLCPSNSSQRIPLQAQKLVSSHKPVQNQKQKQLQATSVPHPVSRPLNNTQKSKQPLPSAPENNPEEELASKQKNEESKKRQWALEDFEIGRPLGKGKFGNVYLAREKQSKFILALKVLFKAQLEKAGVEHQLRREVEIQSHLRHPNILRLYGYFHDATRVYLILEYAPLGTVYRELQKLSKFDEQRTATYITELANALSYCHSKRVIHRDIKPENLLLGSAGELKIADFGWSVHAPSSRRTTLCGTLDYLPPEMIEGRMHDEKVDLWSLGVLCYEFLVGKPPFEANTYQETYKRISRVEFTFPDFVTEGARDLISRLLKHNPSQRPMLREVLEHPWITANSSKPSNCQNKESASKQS

The target of the next test is T2, ULK3 (Homo sapiens, UniProt Q6PHR2).
T2 sequence (Q6PHR2 1-472): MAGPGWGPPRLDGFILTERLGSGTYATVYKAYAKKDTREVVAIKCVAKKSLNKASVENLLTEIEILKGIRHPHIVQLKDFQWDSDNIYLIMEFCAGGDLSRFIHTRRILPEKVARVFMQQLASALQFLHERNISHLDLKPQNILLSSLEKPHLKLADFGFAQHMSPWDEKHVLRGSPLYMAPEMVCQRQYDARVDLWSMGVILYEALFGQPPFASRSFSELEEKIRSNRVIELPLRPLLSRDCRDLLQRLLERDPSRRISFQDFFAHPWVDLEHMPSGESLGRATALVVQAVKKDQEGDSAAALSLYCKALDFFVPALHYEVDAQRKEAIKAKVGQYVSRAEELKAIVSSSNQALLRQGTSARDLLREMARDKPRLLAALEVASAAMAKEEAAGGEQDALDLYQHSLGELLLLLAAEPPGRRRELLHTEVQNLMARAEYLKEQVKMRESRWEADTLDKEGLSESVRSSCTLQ

Another test concerns the target T3, FECH (Homo sapiens, UniProt P22830).
T3 sequence (P22830 1-423): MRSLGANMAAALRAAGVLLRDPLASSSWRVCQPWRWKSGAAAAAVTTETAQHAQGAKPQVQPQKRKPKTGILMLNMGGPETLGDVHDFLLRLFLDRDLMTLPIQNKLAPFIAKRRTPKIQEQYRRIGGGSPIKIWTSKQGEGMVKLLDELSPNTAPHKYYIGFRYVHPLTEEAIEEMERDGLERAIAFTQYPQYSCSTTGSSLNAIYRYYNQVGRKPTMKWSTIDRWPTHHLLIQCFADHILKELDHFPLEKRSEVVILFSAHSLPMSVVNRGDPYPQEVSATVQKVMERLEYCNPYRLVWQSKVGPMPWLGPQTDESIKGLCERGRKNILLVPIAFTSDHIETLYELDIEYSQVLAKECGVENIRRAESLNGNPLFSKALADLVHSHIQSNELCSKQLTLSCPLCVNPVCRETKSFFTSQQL

Another test concerns the target T4, NQO2A (Homo sapiens, UniProt P16083).
T4 sequence (P16083 1-231): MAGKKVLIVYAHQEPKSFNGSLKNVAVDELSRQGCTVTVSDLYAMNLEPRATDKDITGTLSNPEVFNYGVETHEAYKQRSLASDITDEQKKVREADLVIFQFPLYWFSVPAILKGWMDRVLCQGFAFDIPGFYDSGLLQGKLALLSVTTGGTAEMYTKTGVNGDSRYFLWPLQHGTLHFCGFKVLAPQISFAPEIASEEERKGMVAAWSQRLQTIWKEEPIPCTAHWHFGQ

Like-named read-outs stand apart in the source and are kept apart here.

MARK3, sequence (P27448 whole entry): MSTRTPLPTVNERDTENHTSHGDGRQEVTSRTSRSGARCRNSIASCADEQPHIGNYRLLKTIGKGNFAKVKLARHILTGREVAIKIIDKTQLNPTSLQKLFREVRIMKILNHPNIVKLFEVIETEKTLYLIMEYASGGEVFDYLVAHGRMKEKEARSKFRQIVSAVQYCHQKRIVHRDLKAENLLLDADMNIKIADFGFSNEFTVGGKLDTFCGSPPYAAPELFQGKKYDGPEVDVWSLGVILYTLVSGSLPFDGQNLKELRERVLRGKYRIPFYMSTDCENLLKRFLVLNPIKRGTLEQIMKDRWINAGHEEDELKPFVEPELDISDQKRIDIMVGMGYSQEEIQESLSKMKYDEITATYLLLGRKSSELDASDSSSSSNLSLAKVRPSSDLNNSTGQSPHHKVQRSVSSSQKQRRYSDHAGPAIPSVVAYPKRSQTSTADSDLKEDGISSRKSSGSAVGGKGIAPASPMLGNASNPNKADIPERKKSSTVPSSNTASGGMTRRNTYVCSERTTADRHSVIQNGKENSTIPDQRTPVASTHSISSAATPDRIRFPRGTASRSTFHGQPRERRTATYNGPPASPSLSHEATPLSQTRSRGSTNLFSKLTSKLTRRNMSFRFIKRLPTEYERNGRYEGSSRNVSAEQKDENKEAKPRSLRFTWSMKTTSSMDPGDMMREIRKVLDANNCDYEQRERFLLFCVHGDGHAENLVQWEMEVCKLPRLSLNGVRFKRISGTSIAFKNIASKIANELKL
NEK7, sequence (Q8TDX7 whole entry): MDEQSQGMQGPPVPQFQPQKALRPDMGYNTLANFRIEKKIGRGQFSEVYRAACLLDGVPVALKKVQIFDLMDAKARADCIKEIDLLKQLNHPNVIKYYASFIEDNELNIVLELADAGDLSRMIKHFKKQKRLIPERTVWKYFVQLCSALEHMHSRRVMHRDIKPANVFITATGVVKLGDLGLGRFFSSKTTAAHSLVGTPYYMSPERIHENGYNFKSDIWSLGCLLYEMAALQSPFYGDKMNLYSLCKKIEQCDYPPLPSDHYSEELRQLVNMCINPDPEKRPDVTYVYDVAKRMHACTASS
FLT1, sequence (P17948 whole entry): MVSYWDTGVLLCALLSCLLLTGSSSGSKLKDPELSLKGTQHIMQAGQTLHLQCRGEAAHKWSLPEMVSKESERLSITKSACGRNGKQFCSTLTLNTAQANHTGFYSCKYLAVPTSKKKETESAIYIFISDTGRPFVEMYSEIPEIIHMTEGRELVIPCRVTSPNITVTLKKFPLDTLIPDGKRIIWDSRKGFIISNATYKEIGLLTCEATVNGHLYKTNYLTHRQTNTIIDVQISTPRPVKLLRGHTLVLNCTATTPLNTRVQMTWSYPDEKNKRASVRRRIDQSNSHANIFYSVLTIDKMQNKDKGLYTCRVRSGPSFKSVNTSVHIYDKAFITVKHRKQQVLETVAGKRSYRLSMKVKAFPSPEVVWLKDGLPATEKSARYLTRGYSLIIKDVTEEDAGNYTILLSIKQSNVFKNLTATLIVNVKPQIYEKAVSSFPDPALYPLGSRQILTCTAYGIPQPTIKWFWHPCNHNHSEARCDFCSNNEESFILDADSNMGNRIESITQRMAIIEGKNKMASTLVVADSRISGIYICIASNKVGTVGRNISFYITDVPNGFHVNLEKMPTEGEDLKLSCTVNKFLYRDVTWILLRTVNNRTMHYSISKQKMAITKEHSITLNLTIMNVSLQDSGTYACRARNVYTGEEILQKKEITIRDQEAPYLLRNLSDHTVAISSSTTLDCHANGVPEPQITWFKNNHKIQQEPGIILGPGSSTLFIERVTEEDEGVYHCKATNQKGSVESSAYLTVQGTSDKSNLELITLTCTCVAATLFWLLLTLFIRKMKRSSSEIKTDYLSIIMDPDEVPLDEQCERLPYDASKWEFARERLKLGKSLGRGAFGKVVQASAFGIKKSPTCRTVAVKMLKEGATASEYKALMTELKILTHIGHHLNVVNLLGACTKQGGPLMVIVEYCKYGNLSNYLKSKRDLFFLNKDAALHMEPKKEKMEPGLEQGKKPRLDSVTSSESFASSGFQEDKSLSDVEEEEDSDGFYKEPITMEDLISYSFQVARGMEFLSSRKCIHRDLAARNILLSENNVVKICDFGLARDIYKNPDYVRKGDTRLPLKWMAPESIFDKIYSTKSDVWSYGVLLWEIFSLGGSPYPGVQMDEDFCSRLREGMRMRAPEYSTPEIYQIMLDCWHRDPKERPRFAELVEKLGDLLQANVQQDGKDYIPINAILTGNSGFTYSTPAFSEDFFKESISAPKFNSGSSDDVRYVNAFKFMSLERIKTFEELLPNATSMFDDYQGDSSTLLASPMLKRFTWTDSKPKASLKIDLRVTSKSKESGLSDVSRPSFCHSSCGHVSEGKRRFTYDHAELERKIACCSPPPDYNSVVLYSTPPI
MELK, sequence (Q14680 whole entry): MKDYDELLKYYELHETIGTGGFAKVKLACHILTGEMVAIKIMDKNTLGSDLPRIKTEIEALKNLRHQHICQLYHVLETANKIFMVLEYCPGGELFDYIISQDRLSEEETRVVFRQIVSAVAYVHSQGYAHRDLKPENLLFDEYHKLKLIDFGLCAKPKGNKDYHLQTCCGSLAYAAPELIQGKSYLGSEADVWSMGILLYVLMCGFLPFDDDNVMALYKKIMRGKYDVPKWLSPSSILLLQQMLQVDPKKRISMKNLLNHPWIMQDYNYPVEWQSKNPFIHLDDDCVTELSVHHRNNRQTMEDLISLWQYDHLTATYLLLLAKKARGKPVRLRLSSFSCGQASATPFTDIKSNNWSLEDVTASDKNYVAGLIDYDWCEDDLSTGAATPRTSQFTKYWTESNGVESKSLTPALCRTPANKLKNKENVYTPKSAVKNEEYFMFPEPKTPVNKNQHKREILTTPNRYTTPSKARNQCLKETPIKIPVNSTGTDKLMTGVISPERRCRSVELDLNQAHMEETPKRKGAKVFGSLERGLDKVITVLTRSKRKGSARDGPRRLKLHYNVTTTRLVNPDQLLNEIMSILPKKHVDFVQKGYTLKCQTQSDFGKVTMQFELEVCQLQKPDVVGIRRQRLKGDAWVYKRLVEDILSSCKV
CK1e, sequence (P49674 whole entry): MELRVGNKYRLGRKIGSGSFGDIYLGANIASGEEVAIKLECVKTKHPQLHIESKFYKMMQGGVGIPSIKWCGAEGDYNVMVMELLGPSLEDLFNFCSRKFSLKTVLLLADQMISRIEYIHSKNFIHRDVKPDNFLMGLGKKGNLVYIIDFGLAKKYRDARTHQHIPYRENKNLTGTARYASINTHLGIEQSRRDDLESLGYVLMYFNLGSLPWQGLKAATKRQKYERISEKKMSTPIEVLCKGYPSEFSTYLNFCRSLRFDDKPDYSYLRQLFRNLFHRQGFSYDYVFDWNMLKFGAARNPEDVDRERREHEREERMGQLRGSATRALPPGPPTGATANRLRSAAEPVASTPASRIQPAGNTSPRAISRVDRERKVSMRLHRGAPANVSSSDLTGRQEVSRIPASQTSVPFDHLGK
CLK1, sequence (P49759 whole entry): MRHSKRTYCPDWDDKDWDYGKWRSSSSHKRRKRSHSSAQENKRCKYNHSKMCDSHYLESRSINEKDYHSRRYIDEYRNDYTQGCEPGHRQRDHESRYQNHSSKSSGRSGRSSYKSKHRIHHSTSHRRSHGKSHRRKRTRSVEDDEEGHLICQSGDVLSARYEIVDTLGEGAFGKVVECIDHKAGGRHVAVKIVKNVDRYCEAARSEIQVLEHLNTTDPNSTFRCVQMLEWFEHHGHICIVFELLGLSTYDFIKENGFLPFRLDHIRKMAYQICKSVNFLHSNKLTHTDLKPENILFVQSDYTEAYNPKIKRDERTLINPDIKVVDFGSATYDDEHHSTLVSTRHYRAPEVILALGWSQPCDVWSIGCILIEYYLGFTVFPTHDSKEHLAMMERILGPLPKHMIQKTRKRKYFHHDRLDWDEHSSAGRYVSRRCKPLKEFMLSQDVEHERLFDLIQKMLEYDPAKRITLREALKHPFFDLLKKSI
CaMK1d, sequence (Q8IU85 whole entry): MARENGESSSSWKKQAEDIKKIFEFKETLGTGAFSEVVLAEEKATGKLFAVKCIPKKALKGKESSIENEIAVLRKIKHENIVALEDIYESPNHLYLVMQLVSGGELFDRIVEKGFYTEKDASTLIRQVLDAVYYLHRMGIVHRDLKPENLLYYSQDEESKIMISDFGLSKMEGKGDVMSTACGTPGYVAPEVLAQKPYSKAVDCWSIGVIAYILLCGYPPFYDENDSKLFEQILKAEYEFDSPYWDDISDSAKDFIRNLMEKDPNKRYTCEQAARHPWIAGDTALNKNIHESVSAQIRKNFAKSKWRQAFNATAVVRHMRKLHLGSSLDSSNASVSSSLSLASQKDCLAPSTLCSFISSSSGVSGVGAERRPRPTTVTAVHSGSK

In the case of `CNc1ncc2cc(-c3ccc(-c4cccc(C)n4)cc3Cl)c(=O)n(CC3OCC(N)CO3)c2n1` (stereo not shown) [compound 2, G-5555], the “dTm G-5555 (2)” value was 8.5 °C at AurA (10 µM, binder); 0.9 °C on CHK2 (10 µM, binder); 0.1 °C at CLK1 (10 µM, binder); 4.5 °C at CaMK1d (10 µM, binder); 2.2 °C on EpHA2 (10 µM, binder); -0.1 °C at FGFR1 (10 µM, binder). In addition, the “dTm G-5555 (2)” value on FLT1 (10 µM, binder) was 1.7 °C; on MARK3 (10 µM, binder), 8.8 °C; at MELK (10 µM, binder), 8.4 °C; on NEK7 (10 µM, binder), 0.1 °C; on PIM3 (10 µM, binder), -1.8 °C; on ULK3 (10 µM, binder), 8.0 °C.

On to `CNc1ncc2cc(-c3cc(Br)ccc3Cl)c(=O)n(C[C@H]3OC[C@H](N)CO3)c2n1` [compound 7, 8-(((2r,5r)-5-Amino-1,3-dioxan-2-yl)methyl)-6-(5-bromo-2-chlorophenyl)-2-(methylamino)pyrido[2,3-d]pyrimidin-7(8H)-one], for which the ΔTm at 10 µM at AurA (read-out: dTm 7) was 1.4 °C; on CHK2 (read-out: dTm 7) it was 0.2 °C; on CLK1 (read-out: dTm 7) it was 0.4 °C; at CaMK1d (read-out: dTm 7) it was 0.4 °C; at EpHA2 (read-out: dTm 7) it was 4.8 °C; on FECH (read-out: dTm 7), -1.1 °C. Moreover, the ΔTm at 10 µM at FGFR1 (read-out: dTm 7) was 2.9 °C; on FLT1 (read-out: dTm 7) it was 5.4 °C; at MARK3 (read-out: dTm 7) it was 1.7 °C; on MELK (read-out: dTm 7), 3.6 °C; at NEK7 (read-out: dTm 7), -0.2 °C; at NQO2A (read-out: dTm 7) it was 0.6 °C. Besides, the results for the ΔTm at 10 µM on PIM3 (read-out: dTm 7) and on ULK3 (read-out: dTm 7) were 0.9 °C and 0.6 °C, respectively.

`CNc1ncc2cc(-c3cc(Br)ccc3Cl)c(=O)n(CCCCN)c2n1` [compound 6, 8-(4-Aminobutyl)-6-(5-bromo-2-chlorophenyl)-2-(methylamino)pyrido[2,3-d]pyrimidin-7(8H)-one]: the ΔTm at 10 µM was 1.9 °C on AurA (read-out: dTm 6); 0.4 °C at CHK2 (read-out: dTm 6); 2.6 °C on CK1e (read-out: dTm 6); 0.2 °C on CLK1 (read-out: dTm 6); 2.1 °C on CaMK1d (read-out: dTm 6); 6.7 °C at EpHA2 (read-out: dTm 6). The ΔTm at 10 µM at FECH (read-out: dTm 6) was 0.2 °C; on FGFR1 (read-out: dTm 6), 3 °C; at FLT1 (read-out: dTm 6), 6 °C; at MARK3 (read-out: dTm 6), 3.5 °C; on NEK7 (read-out: dTm 6) it was -1 °C; at NQO2A (read-out: dTm 6), 0 °C. For the same compound, at PIM3 (read-out: dTm 6), the ΔTm at 10 µM is -0.4 °C.

For `CNc1ncc2cc(-c3ccccc3Cl)c(=O)n(CCCCN)c2n1` [compound 4, 8-(4-Aminobutyl)-6-(2-chlorophenyl)-2-(methylamino)pyrido[2,3-d]pyrimidin-7(8H)-one], the ΔTm at 10 µM was 0.9 °C at CHK2 (read-out: dTm MR21 (4)); 4.9 °C at CK1e (read-out: dTm MR21 (4)); -1.2 °C on CLK1 (read-out: dTm MR21 (4)); 2.7 °C at CaMK1d (read-out: dTm MR21 (4)); -1.1 °C at FECH (read-out: dTm MR21 (4)); 3.3 °C at FGFR1 (read-out: dTm MR21 (4)). Besides, the ΔTm at 10 µM was 5.4 °C at FLT1 (read-out: dTm MR21 (4)); 5.3 °C at MARK3 (read-out: dTm MR21 (4)); 5.7 °C at MELK (read-out: dTm MR21 (4)); 0.1 °C at NEK7 (read-out: dTm MR21 (4)); -1 °C on NQO2A (read-out: dTm MR21 (4)); -0.8 °C on PIM3 (read-out: dTm MR21 (4)). For the same compound, the ΔTm at 10 µM at ULK3 (read-out: dTm MR21 (4)) was 2.4 °C.

Take `CNc1ncc2cc(-c3cc(F)ccc3F)c(=O)n(CCCCN)c2n1` [compound 5, 8-(4-Aminobutyl)-6-(2,5-difluorophenyl)-2-(methylamino)pyrido[2,3-d]pyrimidin-7(8H)-one]: the ΔTm at 10 µM on AurA (read-out: dTm MR22 (5)) was -3 °C; on CHK2 (read-out: dTm MR22 (5)) it was 0.4 °C; at CK1e (read-out: dTm MR22 (5)), 2.8 °C; at CLK1 (read-out: dTm MR22 (5)), 0.4 °C; on CaMK1d (read-out: dTm MR22 (5)), -1.2 °C; at EpHA2 (read-out: dTm MR22 (5)) it was 6.5 °C. Also, the ΔTm at 10 µM was 0.3 °C on FECH (read-out: dTm MR22 (5)); 3.4 °C on FGFR1 (read-out: dTm MR22 (5)); 4.6 °C at FLT1 (read-out: dTm MR22 (5)); 1.1 °C at MARK3 (read-out: dTm MR22 (5)); 3.2 °C at MELK (read-out: dTm MR22 (5)); -1.3 °C on NEK7 (read-out: dTm MR22 (5)). In addition, the ΔTm at 10 µM on NQO2A (read-out: dTm MR22 (5)) was -0.2 °C; on PIM3 (read-out: dTm MR22 (5)), -0.6 °C; at ULK3 (read-out: dTm MR22 (5)), 1.9 °C.
